Source: US12048737B2, “Use of a vaccine targeting a cryptic tert epitope, for treating cancer in a HLA-A*0201-positive patient having a non-immunogenic tumor expressing tert” (KRIPTIC PHARMACEUTICALS LIMITED, priority 2017, dated 2024)

Test system: NSCLC tumors expressing TElomerase Reverse Transcriptase (TERT)
Assay: Vx-001-201 randomized double blind phase IIb study: clinical outcome (OS, TTF, 12 months survival)
Format: in vivo, human
Description: The Vx-001-201 study is a randomized, double blind multicenter study done in 70 centers in France, Germany, Spain, Italy, Greece, Poland, Romania and Czech Republic. Key eligibility criteria were a) non small cell lung cancer (NSCLC), b) stage IV or recurrent stage I-III, c) disease control after platinum based first line chemotherapy according to RECIST 1.1 criteria, d) HLA-A*0201 positivity, e) tumors expressing TElomerase Reverse Transcriptase (TERT), f) ECOG 0 or 1 g) absence of brain metastasis.
• a) Principal endpoint: overall survival (OS) measured from randomization • b) Secondary endpoints: • Time to Treatment Failure (TTF) measured from randomization • OS at 12 months • c) Main exploratory objectives • Evaluation of vaccine induced specific immune response • Correlation between vaccine specific immune response and clinical response Procedures and Vaccination Protocol
Patients who fulfilled all inclusion criteria were randomized within 4 weeks after the end of first line chemotherapy.
The vaccination protocol consisted in six vaccinations at three week interval. The optimized Vx-001/TERT572Y was used in the first two vaccinations and the native Vx-001/TERT572 in the following four vaccinations. Patients who continued controlling their disease after the sixth vaccination received boost vaccination with the Vx-001/TERT572 every three months. Vaccination was stopped at disease progression (FIG. 1).
The primary and secondary endpoints were analysed in the Full Analysis Set (FAS) composed of all patients who fulfilled the five main criteria a) NSCLC, b) stage IV or recurrent stage I-III, c) disease control after first line chemotherapy, d) HLA-A*0201 positivity and e) TERT expressing tumors.
We used the Kaplan-Meier method to estimate OS and TTF in each arm and a Cox proportional hazards regression model to estimate Hazard Ratio (HR) relating OS and TTF to the treatment effect.

[1] = FAS, all patients, Vx-001 vs placebo
[2] = FAS, OR to chemotherapy (n = 87)
[3] = FAS, SD to chemotherapy (n = 103)
[4] = Vx-001 responders vs non-responders
[5] = patients with no natural immunity
[6] = patients without natural immunity, Vx-001 vs placebo
[7] = vaccinated patients, Vx-001 immune non-responders
[8] = vaccinated patients, Vx-001 immune responders
[9] = with natural immunity, assessed before 26 days after end of chemotherapy
[10] = with natural immunity, assessed before 26 days after end of chemotherapy, Vx-001 vs placebo
[11] = within Vx-001 treated (n = 80): natural immunity vs no natural immunity
[12] = without natural immunity, assessed less than 26 days after end of chemotherapy
[13] = without natural immunity, assessed less than 26 days after end of chemotherapy, Vx-001 vs placebo
[14] = without natural immunity, 1st line CARBO (n = 74)
[15] = without natural immunity, 1st line CARBO (n = 74), Vx-001 vs placebo
[16] = without natural immunity, 1st line CDDP (n = 46)
[17] = without natural immunity, 1st line CDDP (n = 46), Vx-001 vs placebo
[18] = without natural immunity, <65 years (n = 59)

Substance: Vx-001: vaccine composed of two nine amino acid peptides, TERT572 and TERT572Y, administered separately with the adjuvant Montanide ISA51 VG (chain 1 RLFFYRKSV; chain 2 YLFFYRKSV; Montanide ISA51 VG adjuvant; peptide from a human protein; optimized peptide)
- 12 months survival (FAS, all patients): 58%
- Median OS (FAS, all patients): 14.3 months
- Median TTF (FAS, all patients): 3.6 months
- HR (OS) [1]: 0.97
- HR (TTF) [1]: 0.88
- 12 months OS (FAS, 1st line CARBO (n = 119)): 58.2%
- Median survival (OS) (FAS, 1st line CARBO (n = 119)): 14.3 months
- HR (OS) (FAS, 1st line CARBO (n = 119), Vx-001 vs placebo): 1.06
- 12 months OS (FAS, 1st line CDDP (n = 69)): 59%
- Median survival (OS) (FAS, 1st line CDDP (n = 69)): 15 months
- HR (OS) (FAS, 1st line CDDP (n = 69), Vx-001 vs placebo): 0.81
- 12 months OS (FAS, <65 years (n = 92)): 57.7%
- Median survival (OS) (FAS, <65 years (n = 92)): 13.4 months
- HR (OS) (FAS, <65 years (n = 92), Vx-001 vs placebo): 1.2
- 12 months OS (FAS, >65 years (n = 98)): 59%
- Median survival (OS) (FAS, >65 years (n = 98)): 15 months
- HR (OS) (FAS, >65 years (n = 98), Vx-001 vs placebo): 0.78
- 12 months OS (FAS, Female (n = 59)): 53.3%
- Median survival (OS) (FAS, Female (n = 59)): 13.2 months
- HR (OS) (FAS, Female (n = 59), Vx-001 vs placebo): 1.52
- 12 months OS (FAS, Male (n = 131)): 61%
- Median survival (OS) (FAS, Male (n = 131)): 15 months
- HR (OS) (FAS, Male (n = 131), Vx-001 vs placebo): 0.81
- 12 months OS (FAS, NSQ (n = 118)): 55%
- Median survival (OS) (FAS, NSQ (n = 118)): 13.4 months
- HR (OS) (FAS, NSQ (n = 118), Vx-001 vs placebo): 0.88
- 12 months OS [2]: 69%
- Median survival (OS) [2]: 15.3 months
- HR (OS) (FAS, OR to chemotherapy (n = 87), Vx-001 vs placebo): 0.89
- 12 months OS [3]: 52%
- Median survival (OS) [3]: 14.3 months
- HR (OS) (FAS, SD to chemotherapy (n = 103), Vx-001 vs placebo): 0.99
- 12 months OS (FAS, SQ (n = 72)): 64%
- Median survival (OS) (FAS, SQ (n = 72)): 14.3 months
- HR (OS) (FAS, SQ (n = 72), Vx-001 vs placebo): 1.13
- HR (OS) [4]: 0.39
- HR (TTF) [4]: 0.41
- 12 months OS (patients with natural immunity): 65%
- Median TTF (patients with natural immunity): 2.9 months
- OS and 12 months survival, placebo vs Vx-001 (patients with natural immunity (FIG. 6)): no difference
- Median survival (OS) (patients with natural immunity against TERT572): 15.5 months
- 12 months OS [5]: 55%
- Median TTF [5]: 4.1 months
- Median survival (OS) (patients with no natural immunity against TERT572 (non-immunogenic tumors)): 13.2 months
- HR (OS) [6]: 0.80
- HR (TTF) [6]: 0.75
- Median OS [7]: 13.4 months
- Median TTF [7]: 3.6 months
- Median OS [8]: 21.3 months
- Median TTF [8]: 9.1 months
- Median OS [9]: 15.3 months
- Median TTF [9]: 2.2 months
- HR (OS) [10]: 1.54
- HR (TTF) [10]: 1.98
- HR (OS) [11]: 0.91
- HR (TTF) [11]: 0.83
- Median OS (without natural immunity, assessed later than 26 days after chemotherapy): 13.2 months
- HR (OS) (without natural immunity, assessed later than 26 days after chemotherapy, Vx-001 vs placebo): 0.96
- Median OS [12]: 11.7 months
- Median TTF [12]: 4.1 months
- HR (OS) [13]: 0.58
- HR (TTF) [13]: 0.62
- 12 months OS [14]: 53%
- Median TTF [14]: 3.7 months
- Median survival (OS) [14]: 13.1 months
- HR (OS) [15]: 1.03
- HR (TTF) [15]: 0.80
- 12 months OS [16]: 59%
- Median TTF [16]: 4.1 months
- Median survival (OS) [16]: 13.4 months
- HR (OS) [17]: 0.51
- HR (TTF) [17]: 0.67
- 12 months OS [18]: 53.6%
- Median TTF [18]: 3.5 months
